# Assay results as given in EP0261362A2, “Ubidecarenone as a keloid remedy” (Eisai Co., Ltd., priority 1986, dated 1988).
# Experiments:
# Assay type in all cases: in vivo
# [1] = test system: skin; assay: Primary skin irritation test; settings: Concn. 1%, solvent Squalane
# Excerpt: (§1) The safety of percutaneous administration of ubidecarenone is high, and skin irritation due to ubidecarenone is minor. For example, the results of primary skin irritation, accumulative irritation, eyelid irritation, phototoxis, sensitization, photosensitization, and patch tests are as shown in Table l.
# [2] = test system: skin; assay: Accumulative skin irritation test; settings: Concn. 1%, solvent Squalane
# Excerpt: as §1
# [3] = test system: eyelid; assay: Eyelid irritation test; settings: Concn. 1%, solvent Squalane
# Excerpt: as §1
# [4] = test system: skin; assay: Phototoxis test; settings: Concn. 1% and 10%, solvent Squalane
# Excerpt: as §1
# [5] = test system: skin; assay: Sensitization test (Adjuvant & Patch method); settings: Induction: 5% acetone
# Excerpt: as §1
# [6] = test system: skin; assay: Photosensitization test (Adjuvant & Strip method); settings: Induction: 10% acetone
# Excerpt: as §1
# [7] = test system: skin; assay: Patch test; settings: Concn. 1%, solvent Squalane
# Excerpt: as §1
smiles,measurement,setting,value
COC1=C(OC)C(=O)C(C/C=C(\C)CC/C=C(\C)CC/C=C(\C)CC/C=C(\C)CC/C=C(\C)CC/C=C(\C)CC/C=C(\C)CC/C=C(\C)CC/C=C(\C)CCC=C(C)C)=C(C)C1=O [ubidecarenone],"Primary skin irritation, conclusion",[1],lowly irritative
same,"Primary skin irritation, result",[1],0.1
same,"Accumulative skin irritation, result",[2],0.3
same,"Eyelid irritation, conclusion",[3],lowly irritative
same,"Phototoxis, conclusion",[4],lowly phototoxic
same,"Sensitization Challenge, result",[5]; challenge 1% in acetone,0/10
same,"Sensitization Challenge, conclusion",[5]; challenge 5% and 1% in acetone,lowly sensitized
same,"Sensitization Challenge, result",[5]; challenge 5% in acetone,0/10
same,"Photosensitivization Challenge, result",[6]; challenge 0.5 in acetone,0/5
same,"Photosensitivization Challenge, result",[6]; challenge 1 in acetone,0/5
same,"Photosensitivization Challenge, result",[6]; challenge 2 in acetone,0/5
same,"Photosensitivization Challenge, result",[6]; challenge 5 in acetone,0/5
same,"Photosensitivization Challenge, result",[6]; challenge 10% in acetone,0/5
same,"Photosensitivization Challenge, conclusion",[6]; challenge 10% to 0.5 in acetone,lowly photosensitized
same,"Patch test, conclusion",[7],lowly irritative
same,"Patch test, result",[7],0/54
